{"source": "patent US20230011052A1", "about": "“METHOD AND COMPOSITIONS FOR REGULATED ARMORING OF CELLS” (Senti Biosciences, Inc., priority 2019, published 2023)", "key": {"ERT2 domain": {"target": "T1, ERT2 domain (Homo sapiens, UniProt P03372, G400V/L544A/M543A)", "T1 construct": "expressed in transfected cells; host or cells: CD4/CD8 T cells, virally transduced", "T1 sequence (P03372 311-547 G400V/M543A/L544A limits assumed)": "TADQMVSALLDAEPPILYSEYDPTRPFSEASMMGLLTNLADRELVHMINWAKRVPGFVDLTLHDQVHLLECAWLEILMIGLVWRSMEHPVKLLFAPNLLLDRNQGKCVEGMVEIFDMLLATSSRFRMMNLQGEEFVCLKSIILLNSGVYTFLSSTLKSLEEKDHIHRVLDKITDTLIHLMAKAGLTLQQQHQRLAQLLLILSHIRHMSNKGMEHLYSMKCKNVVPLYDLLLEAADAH", "test": "Tamoxifen (ERT2) regulatable TF reporter and CAR expression in T cells (MFI)", "type": "cell-based", "conditions": "T cells with ERT2 regulatable TF 565 and reporter alone (1066) or on construct also encoding a CAR (2235); 1, 0.25, 0.1 uM or no drug; Day 9 MFI", "text": "Various regulatable TF (also referred to as an activation-conditional control polypeptide (ACP) for drug-inducible formats or “synTF”) and expression cassettes were constructed as shown in FIG. 17A. […] The cassettes were cloned into a viral vector and used to produce virus.\nOn Day 0, CD4/CD8 T cells (FL00711) were thawed and activated with Dynabeads (3:1) in complete T cell media (Optimizer+Supplements—Gibco+5% human serum)+IL-2 (100 Units/ml). On Day 2, cells were transduced with 1×10^5 GV of virus. […] Florescent median intensity (MFI) was assessed of Day 9."}, "[1]": {"system": "T cells engineered with drug-inducible ACP (NS3/NS4 protease cleavage site)", "test": "In vivo regulated armoring: plasma hIL-12 (Luminex) and circulating human T cells (flow cytometry)", "set-up": "species or system NSG mice", "conditions": "25 mg/kg Grz IP, BID; T cells with SB01845 & SB02357", "protocol": "Negative controls were untransduced T cells. […] Dosing: Drug treated mice received 25 mg/kg Grz at each dosing time point; vehicle treated mice received equivalent volume of vehicle; all Grz dosing administered IP. Dosing continued BID on days 2-4. […] Mice were bled on day 4 and sacrificed/bled on day 5."}, "target cells": {"system": "target cells", "test": "T cell killing assay (LDH release)", "type": "cell-based", "conditions": "+/- 2 μM GRZ for 48 hours", "protocol": "For T cell killing assays, on Day 0 T cells were seeded at 1e6/mL+/−2 μM of GRZ for 48 hours to induce payload. On Day 2, target cells were counted and 35K were seeded per well in a 96 well plate for 4-6 hrs in target cell media. Then target cell media was removed and T cells were counted and 35K CAR normalized T cells were seeded [E:T— 1:1] in 200 µl of Optimizer media overnight. On Day 3, cells were transferred to a V-bottom plate, spun down, and supernatant harvested to determine killing activity using an LDH assay (CyQUANT LDH Cytotoxicity Assay; Life Technologies)."}, "[2]": {"system": "T cells engineered with drug-inducible ACP (inducible IL-12)", "type": "in vivo", "conditions": "for Human T cells in the blood (hCD3+: hCD45+): inducible IL-12 T cells, individual mice", "protocol": "Negative controls were untransduced T cells. […] All Grz dosing was administered IP.\nA first series of Grazoprevir (Grz) dosing regimens were assessed, as described in Table 25."}, "[3]": {"system": "T cells engineered with drug-inducible ACP (inducible IL-12)", "procedure": "Grazoprevir potassium salt was dissolved sequentially in DMSO, PEG400, and PBS to reach 10 mg/mL. All Grz dosing was administered IP. 20e6 T cells per mouse were injected by tail vein injection, as indicated. Luminex assay was run to assess levels of hIL-12 in mouse plasma. Presence of human T cells in mouse blood was analyzed by flow cytometry.\nFollowing the results of the experiments above, animals were dosed (IP) 60 mg/kg for 3 days once a day. Recombinant (hIL-2 1×10^4 IU) was also administered as indicated."}}, "note": "Several values for one entry are separate records, joined by “and”; a condition that tells them apart may be missing. Equal entries are not always repeated. Where two headings read alike, the source gives them in different places."}
{"smiles": "CC/C(=C(\\c1ccccc1)c1ccc(OCCNC)cc1)c1ccccc1", "note": "[N-desmethyltamoxifen]", "values": [{"measurement": "reporter (mCherry) expression", "setting": "ERT2 domain", "value": "did not result expression of the reporter"}]}
{"smiles": "C=C[C@@H]1C[C@]1(NC(=O)[C@@H]1C[C@@H]2CN1C(=O)[C@H](C(C)(C)C)NC(=O)O[C@@H]1C[C@H]1CCCCCc1nc3ccc(OC)cc3nc1O2)C(=O)NS(=O)(=O)C1CC1.O", "note": "[grazoprevir]", "values": [{"measurement": "hIL-12 in the plasma of mice above vehicle", "setting": "[1]", "value": "~100", "unit": "fold"}, {"measurement": "difference in killing in the presence or absence of grazoprevir", "setting": "target cells", "value": "No noticeable differences in killing"}, {"measurement": "Human T cells in the blood (hCD3+: hCD45+)", "setting": "[2]; Day 4, 25 mg/kg BID Grz IP, 25 mg/kg", "value": "5.42 % of live cells and 0.08 % of live cells and 4.07 % of live cells and 3.61 % of live cells and 3.88 % of live cells and 5.91 % of live cells and 4.2 % of live cells and 3.14 % of live cells"}, {"measurement": "Human T cells in the blood (hCD3+: hCD45+)", "setting": "[2]; Day 4, 50 mg/kg Grz IP, 50 mg/kg", "value": "4.09 % of live cells and 2.96 % of live cells and 3.7 % of live cells and 1.62 % of live cells and 4.16 % of live cells and 2.57 % of live cells and 4.55 % of live cells and 2.58 % of live cells"}, {"measurement": "Human T cells in the blood (hCD3+: hCD45+)", "setting": "[2]; Day 4, 75 mg/kg Grz IP, 75 mg/kg", "value": "2.95 % of live cells and 3.14 % of live cells and 2.6 % of live cells and 0* % of live cells (2×) and 2.41 % of live cells and 1.43 % of live cells and 2.87 % of live cells"}, {"measurement": "Human T cells in the blood (hCD3+: hCD45+)", "setting": "[2]; Day 4, 25 + 50 mg/kg Grz IP, 50 mg/kg", "value": "2.18 % of live cells and 6.98 % of live cells and 6.53 % of live cells and 13 % of live cells and 2.24 % of live cells and 4.72 % of live cells and 5.64 % of live cells and 7.89 % of live cells"}, {"measurement": "serum IL-12 levels", "setting": "[2]; Day 8", "value": "returned to baseline"}, {"measurement": "Human T cells in the blood (hCD3+: hCD45+)", "setting": "[2]; Day 8, 25 mg/kg BID Grz IP, 25 mg/kg", "value": "6.78 % of live cells and 0.077 % of live cells and 3.63 % of live cells and 2.46 % of live cells and 2.07 % of live cells and 3.45 % of live cells and 2.27 % of live cells and 4.09 % of live cells"}, {"measurement": "Human T cells in the blood (hCD3+: hCD45+)", "setting": "[2]; Day 8, 50 mg/kg Grz IP, 50 mg/kg", "value": "7.36 % of live cells and 10.9 % of live cells and 7.31 % of live cells and 8.1 % of live cells and 9.23 % of live cells and 5.88 % of live cells and 6.63 % of live cells and 7.34 % of live cells"}, {"measurement": "Human T cells in the blood (hCD3+: hCD45+)", "setting": "[2]; Day 8, 75 mg/kg Grz IP, 75 mg/kg", "value": "8.19 % of live cells and 9.67 % of live cells and 6.55 % of live cells and 0.028 % of live cells and 11.6 % of live cells and 4.7e−003 % of live cells and 11 % of live cells and 3.79 % of live cells"}, {"measurement": "Human T cells in the blood (hCD3+: hCD45+)", "setting": "[2]; Day 8, 25 + 50 mg/kg Grz IP, 50 mg/kg", "value": "7.09 % of live cells and 7.85 % of live cells and 9 % of live cells and 12 % of live cells and 6.34 % of live cells and 7.02 % of live cells and 8.65 % of live cells and 5.04 % of live cells"}, {"measurement": "mice found dead", "setting": "[2]; Day 12", "value": "2 of 8"}, {"measurement": "serum IL-12 levels", "setting": "[2]; Day 12", "value": "remained stable"}, {"measurement": "Human T cells in the blood (hCD3+: hCD45+)", "setting": "[2]; Day 12, 25 mg/kg BID Grz IP, 25 mg/kg", "value": "13.5 % of live cells and 0.21 % of live cells and 13.3 % of live cells and 9.36 % of live cells and 9.33 % of live cells and 14 % of live cells and 16.1 % of live cells and 13.8 % of live cells"}, {"measurement": "Human T cells in the blood (hCD3+: hCD45+)", "setting": "[2]; Day 12, 25 + 50 mg/kg Grz IP, 50 mg/kg", "value": "10.9 % of live cells and 12.2 % of live cells and 11.1 % of live cells and 16.3 % of live cells and 2.61 % of live cells and 9.13 % of live cells"}, {"measurement": "mice that lost ~15% weight during the first week of dosing", "setting": "[3]; 60 mg/kg IP, these mice received only 30 mg/kg on day 3", "value": "3 of 10"}, {"measurement": "plasma IL-12", "setting": "[3]; Day 4, first on week", "value": "significant Grazoprevir dose dependent induction of IL-12"}, {"measurement": "injected human T cells in blood when Grz was administered", "setting": "[3]; Day 4, 60 mg/kg IP once a day for 3 days", "value": "significantly less"}, {"measurement": "plasma IL-12 levels between drug and no-drug groups", "setting": "[3]; Day 11, off week", "value": "equivalent"}, {"measurement": "plasma IL-12", "setting": "[3]; Day 18, second on week", "value": "further significant Grazoprevir dose dependent induction of IL-12"}, {"measurement": "injected human T cells in blood, inducible system groups with vs without Grz", "setting": "[3]; Days 11, 18, and 25", "value": "no difference"}, {"measurement": "organ findings at end time point", "setting": "[3]; necropsy", "value": "pale kidneys, thick diaphragm, enlarged spleen, thick liver lobe, white/yellow lump growing inside the liver, and organs (liver, stomach, spleen) sticking with peritoneal wall and each other"}, {"measurement": "body weight", "setting": "[3]; time course", "value": "transient weight loss"}]}
